Measured values from patent publication US20220273628A1, “EFFECTS OF LYSERGIC ACID DIETHYLAMIDE (LSD) AND OF LSD ANALOGS TO ASSIST PSY[…] G[…] DISORDER OR OTHER ANXIETY NOT RELATED TO LIFE-T[…]” (Universitätsspital Basel, priority 2021, published 2022).

Experiments:
[1] = test system: patients with anxiety disorder without somatic illness; assay: Same phase II study: adverse events; format: in vivo, human
Text: Subjects were asked to report any adverse events (AEs) during the sessions or between study sessions at the beginning of the next session/visit and at the end of study (EOS) visit. The investigator rated hallucinogen-specific AEs that occurred during the session using a checklist adapted from (Gasser et al., 2014; Griffiths et al., 2006; Schmid et al., 2015). Peak effects were rated at the end of the session based on the patients description and investigators' observation by the investigator as “not reported”, “mild”, “moderate”, or “severe” for: headache, dizziness, dry mouth, nausea, anxiety, paranoid thinking, emotional distress, emotional lability, blurred vision, chills/feeling cold, impaired balance. Heart rate and blood pressure were measured at 2-hourly intervals (Grob et al., 2011).
AEs were described and recorded on the subject's CRF, regardless of the severity or relationship to the IMP. AEs were rated for severity and the potential relationship to the study interventions was evaluated by the investigator according standard criteria. Subjects with AEs were treated appropriately. Abnormal laboratory values not explained by the patients' disease had to be repeated until normal or until the abnormality caould be explained and the subject's safety was not at risk.

[2] = test system: healthy subjects; settings: cited from earlier work
[3] = test system: healthy volunteers; settings: cited from earlier work
[4] = drinking solution (water/alcohol) in dark glass vials; cited from earlier work
[5] = test system: amygdala reactivity; settings: fMRI; cited from earlier work
[6] = test system: dopaminergic D1-3 receptors; settings: cited from earlier work
[7] = test system: adrenergic α1 receptors; settings: cited from earlier work
[8] = follow-up visits, not including treatment sessions

## CCN(CC)C(=O)[C@@H]1C=C2c3cccc4[nH]cc(c34)C[C@H]2N(C)C1 [LSD, lysergic acid diethylamide]
[1]; 100 μg instead of 200 μg, patient with paranoia SAE
  tolerability after dose lowered: tolerated well
[1]; all follow-up visits of the period, not including treatment sessions
  fatigue, total of reported AEs: 9
[1]; during the treatment session
  anxiety at onset of the LSD effect: two
  headache: one
  nausea: two
  strong anxiety/paranoia: one
[1]; first LSD session, 200 μg
  SAE: paranoia during the LSD session (expected reaction to LSD): one
[1]; [8]
  common cold, total of reported AEs: 7
  depression, total of reported AEs: 3
  difficulty concentrating, total of reported AEs: 5
  headache, total of reported AEs: 6
  nausea, total of reported AEs: 3
  vertigo, total of reported AEs: 5
[2]; 200 μg oral, 16 healthy subjects
  duration of alterations in waking consciousness: 12 h
[2]; 200 μg oral
  blood pressure, heart rate, body temperature, pupil size, plasma cortisol, prolactin, oxytocin, and epinephrine: significantly increased
  time until adverse effects completely subsided: ≤ 72 h
[2]; 200 μg, acute AE
  difficulty concentrating, number of subjects of 16 participants: 10
  dizziness, number of subjects of 16 participants: 7
  headache, number of subjects of 16 participants: 9
  nausea, number of subjects of 16 participants: 4
  transient moderate anxiety, number of subjects of 16 participants: 4
[2]; 200 μg
  duration of LSD effects after administration: up to 12 hours
  time of peak LSD effects: 2 h
[3]; 75 μg intravenously, at two weeks
  optimism and trait openness compared with placebo: increased
[3]; 40-80 μg intravenously, 10 healthy volunteers
  blood pressure and heart rate: slightly elevated
[4]
  content-uniformity and stability of the formulation: stability of the formulation throughout the entire study period was documented
[5]
  amygdala reactivity to fearful stimuli: decreased
[6]
  activity at dopaminergic D1-3 receptors: stimulates
[7]
  activity at adrenergic α1 receptors: stimulates
